Read-outs that look alike come from different tables or passages of the source.

Data set [1] concerns larvae of the mustard beetle (Phaedon cochleariae). Description: Phaedon test (PHAECO spray treatment). As to conditions: Phaedon cochleariae, in Brassica rapa, foliar, read-out: effect in % (beetle larvae killed).
A short description of data set [2]: log P determination by HPLC (EEC Directive 79/831 Annex V.A8). It is filed as physicochemical. As to the method: The measurements were carried out using an Agilent 1100 LC system with a 50*4.6 Zorbax Eclipse C18 1.8 μm column (oven temperature 55° C., flow rate 2.0 ml/min).
The following mobile phases were used:
Mobile phase A: acetonitrile+1000 μl of formic acid/l
Mobile phase B: Millipore water+900 μl of formic acid/l

The test system of data set [3] is caterpillars of the armyworm (Spodoptera frugiperda). Description: Spodoptera frugiperda test (SPODFR spray treatment). It counts as in vivo. As to conditions: Spodoptera frugiperda, foliar, read-out: effect in % (caterpillars killed). The source says: Solvent: 78.0 parts by weight of acetone
Where [4] appears, read: reversed-phase HPLC, Zorbax Eclipse C18 column, by HPLC according to EEC Directive 79/831 Annex V.A8, read-out: log P.
The mark [5] stands for this setting: application rate 100 g/ha, maize leaf discs.

Take `CSC[C@H](C)NC(=O)c1cc(Cl)cc(C)c1NC(=O)c1cc(Cn2nnc(C(F)(F)C(F)(F)F)n2)nn1-c1ncccc1Cl` [Example 212]: the pest or weed control at 100 g/ha in data set [1] and in data set [3] (in Zea mays) was not below 80% each time. In data set [2] (log P), this compound registered a chromatographic logP of 4.09.

`CNC(=O)c1cc(C#N)cc(C)c1NC(=O)c1cc(Cn2nnc(C(F)(F)C(F)(F)F)n2)nn1-c1ncccc1Cl` [Example 213]: the pest or weed control at 100 g/ha in data set [1] and in data set [3] (in Zea mays) was not below 80% each time. Moreover, the chromatographic logP in data set [2] (log P) was determined as 3.05.

For the compound `CCNC(=O)c1cc(C#N)cc(C)c1NC(=O)c1cc(Cn2nnc(C(F)(F)C(F)(F)F)n2)nn1-c1ncccc1Cl` [Example 215], the pest or weed control at 100 g/ha in data set [1] and in data set [3] (in Zea mays) was not below 80% each time. In data set [2] (log P), this compound returned a chromatographic logP of 3.24.

For `CSC[C@H](C)NC(=O)c1cc(C#N)cc(C)c1NC(=O)c1cc(Cn2nnc(C(F)(F)C(F)(F)F)n2)nn1-c1ncccc1Cl` [Example 216], the pest or weed control at 100 g/ha in data set [1] and in data set [3] (in Zea mays) was not below 80% in each case. Besides, the chromatographic logP in data set [2] (log P) came out at 3.68.

`Cc1cc(Cl)cc(C(=O)NC2CC2)c1NC(=O)c1cc(Cn2nnc(C(F)(F)F)n2)nn1-c1ncccc1C(F)(F)F` [Example 225]: the pest or weed control at 100 g/ha in data set [1] and in data set [3] (setting [5]) was not below 80% throughout. Further, in data set [2] (setting [4]), the chromatographic logP was determined as 3.39.

On to `CNC(=O)c1cc(Cl)cc(C)c1NC(=O)c1cc(Cn2nnc(C(F)(F)F)n2)nn1-c1ncccc1C(F)(F)F` [Example 226], for which the pest or weed control at 100 g/ha in data set [1] and in data set [3] (setting [5]) was not below 80% throughout. For the same compound, the chromatographic logP in data set [2] (setting [4]) is 3.16.

Regarding `Cc1cc(Cl)cc(C(=O)NC(C)C)c1NC(=O)c1cc(Cn2nnc(C(F)(F)F)n2)nn1-c1ncccc1C(F)(F)F` [Example 227], the pest or weed control at 100 g/ha in data set [1] and in data set [3] (setting [5]) was not below 80% in each case. Also, the chromatographic logP in data set [2] (setting [4]) stood at 3.64.

For the compound `CNC(=O)c1cc(Br)cc(C)c1NC(=O)c1cc(Cn2nnc(C(F)(F)F)n2)nn1-c1ncccc1C(F)(F)F` [Example 228], the pest or weed control at 100 g/ha in data set [1] and in data set [3] (setting [5]) was not below 80% throughout. Moreover, the chromatographic logP in data set [2] (setting [4]) came to 3.28.

Take `Cc1cc(Cl)cc(C(=O)NC2CC2)c1NC(=O)c1cc(Cn2nnc(C(F)F)n2)nn1-c1ncccc1Cl` [Example 230]: the pest or weed control at 100 g/ha in data set [1] and in data set [3] (in Zea mays) was not below 80% in each case. In data set [2] (log P), this compound came in with a chromatographic logP of 2.72.

On to `Cc1cc(Cl)cc(C(=O)NC(C)C)c1NC(=O)c1cc(Cn2nnc(C(F)F)n2)nn1-c1ncccc1Cl` [Example 231], for which the pest or weed control at 100 g/ha in data set [1] and in data set [3] (in Zea mays) was not below 80% throughout. For the same compound, the chromatographic logP in data set [2] (log P) was found to be 2.95.

As to `Cc1cc(C#N)cc(C(=O)NC(C)(C)C)c1NC(=O)c1cc(Cn2nnc(C(F)(F)F)n2)nn1-c1ncccc1C(F)(F)F` [Example 232], the pest or weed control at 100 g/ha in data set [1] and in data set [3] (setting [5]) was not below 80% throughout. Besides, in data set [2] (setting [4]), the chromatographic logP amounted to 3.59.

`Cc1cc(C#N)cc(C(=O)NC2CC2)c1NC(=O)c1cc(Cn2nnc(C(F)(F)F)n2)nn1-c1ncccc1C(F)(F)F` [Example 233]: the pest or weed control at 100 g/ha in data set [1] and in data set [3] (setting [5]) was not below 80% each time. The chromatographic logP in data set [2] (setting [4]) was 3.07.

Regarding `CCNC(=O)c1cc(C#N)cc(C)c1NC(=O)c1cc(Cn2nnc(C(F)(F)F)n2)nn1-c1ncccc1C(F)(F)F` [Example 234], the pest or weed control at 100 g/ha in data set [1] and in data set [3] (setting [5]) was not below 80% in each case. Further, the chromatographic logP in data set [2] (setting [4]) came to 3.07.

Take `CCNC(=O)c1cc(Cl)cc(C)c1NC(=O)c1cc(Cn2nnc(C(F)(F)F)n2)nn1-c1ncccc1C(F)(F)F` [Example 237]: the pest or weed control at 100 g/ha in data set [1] and in data set [3] (setting [5]) was not below 80% throughout. In addition, in data set [2] (setting [4]), the chromatographic logP was determined as 3.43.

As for `CNC(=O)c1cc(Cl)cc(C)c1NC(=O)c1cc(Cn2nnc(C(F)(F)F)n2)nn1-c1ccc(Cl)cc1Cl` [Example 239], the pest or weed control at 100 g/ha in data set [1] and in data set [3] (setting [5]) was not below 80% each time. Also, the chromatographic logP in data set [2] (setting [4]) came out at 3.97.

As for `Cc1cc(I)cc(C(=O)NC(C)C)c1NC(=O)c1cc(Cn2nnc(C(F)(F)F)n2)nn1-c1ncccc1C(F)(F)F` [Example 243], the pest or weed control at 100 g/ha in data set [1] and in data set [3] (setting [5]) was not below 80% throughout. Further, the chromatographic logP in data set [2] (setting [4]) is 3.9.

Turning to `CCNC(=O)c1cc(Br)cc(C)c1NC(=O)c1cc(Cn2nnc(C(F)(F)F)n2)nn1-c1ncccc1C(F)(F)F` [Example 244], the pest or weed control at 100 g/ha in data set [1] and in data set [3] (setting [5]) was not below 80% each time. Also, the chromatographic logP in data set [2] (setting [4]) amounted to 3.52.

As for `Cc1cc(Br)cc(C(=O)NC(C)(C)C)c1NC(=O)c1cc(Cn2nnc(C(F)(F)F)n2)nn1-c1ncccc1C(F)(F)F` [Example 245], the pest or weed control at 100 g/ha in data set [1] and in data set [3] (setting [5]) was not below 80% each time. Further, the chromatographic logP in data set [2] (setting [4]) turned out to be 4.13.

Consider `CNC(=O)c1cc(I)cc(C)c1NC(=O)c1cc(Cn2nnc(C(F)(F)F)n2)nn1-c1ncccc1C(F)(F)F` [Example 247], for which the pest or weed control at 100 g/ha in data set [1] and in data set [3] (setting [5]) was not below 80% throughout. The chromatographic logP in data set [2] (setting [4]) was 3.4.

As for `Cc1cc(Br)cc(C(=O)NCC#N)c1NC(=O)c1cc(Cn2nnc(C(F)(F)F)n2)nn1-c1ncccc1C(F)(F)F` [Example 248], the pest or weed control at 100 g/ha in data set [1] and in data set [3] (setting [5]) was not below 80% each time. For the same compound, the chromatographic logP in data set [2] (setting [4]) came to 3.21.

Consider `Cc1cc(Br)cc(C(=O)NC(C)C)c1NC(=O)c1cc(Cn2nnc(C(F)(F)F)n2)nn1-c1ncccc1C(F)(F)F` [Example 249], for which the pest or weed control at 100 g/ha in data set [1] and in data set [3] (setting [5]) was not below 80% throughout. For the same compound, the chromatographic logP in data set [2] (setting [4]) worked out at 3.76.

`Cc1cc(I)cc(C(N)=O)c1NC(=O)c1cc(Cn2nnc(C(F)(F)F)n2)nn1-c1ncccc1C(F)(F)F` [Example 250]: the pest or weed control at 100 g/ha in data set [1] and in data set [3] (setting [5]) was not below 80% each time. Also, the chromatographic logP in data set [2] (setting [4]) is 3.16.

In the case of `Cc1cc(Br)cc(C(N)=O)c1NC(=O)c1cc(Cn2nnc(C(F)(F)F)n2)nn1-c1ncccc1C(F)(F)F` [Example 251], the pest or weed control at 100 g/ha in data set [1] and in data set [3] (setting [5]) was not below 80% each time. The chromatographic logP in data set [2] (setting [4]) was found to be 3.04.

Turning to `Cc1cc(Cl)cc(C(=O)NCC#N)c1NC(=O)c1cc(Cn2nnc(C(F)(F)F)n2)nn1-c1ncccc1C(F)(F)F` [Example 252], the pest or weed control at 100 g/ha in data set [1] and in data set [3] (setting [5]) was not below 80% in each case. Also, the chromatographic logP in data set [2] (setting [4]) came to 3.28.

In the case of `Cc1cc(C#N)cc(C(=O)NCC#N)c1NC(=O)c1cc(Cn2nnc(C(F)(F)F)n2)nn1-c1ncccc1C(F)(F)F` [Example 253], the pest or weed control at 100 g/ha in data set [1] and in data set [3] (setting [5]) was not below 80% each time. In data set [2] (setting [4]), the chromatographic logP came out at 2.81.

On to `Cc1cc(Cl)cc(C(=O)NC(C)C2CC2)c1NC(=O)c1cc(Cn2nnc(C(F)F)n2)nn1-c1ncccc1Cl` (stereo not drawn) [Example 256], for which the pest or weed control at 100 g/ha in data set [1] and in data set [3] (in Zea mays) was not below 80% throughout. This compound also registered a chromatographic logP in data set [2] (log P) of 3.24.

Take `CCNC(=O)c1cc(Cl)cc(C)c1NC(=O)c1cc(Cn2nnc(C(F)F)n2)nn1-c1ncccc1Cl` [Example 257]: the pest or weed control at 100 g/ha in data set [1] and in data set [3] (in Zea mays) was not below 80% each time. The same compound returned a chromatographic logP in data set [2] (log P) of 2.69.

Regarding `Cc1cc(Cl)cc(C(=O)NC(C)(C)C)c1NC(=O)c1cc(Cn2nnc(C(F)F)n2)nn1-c1ncccc1Cl` [Example 258], the pest or weed control at 100 g/ha in data set [1] and in data set [3] (in Zea mays) was not below 80% in each case. In data set [2] (log P), this compound showed a chromatographic logP of 3.32.

`Cc1cc(Cl)cc(C(=O)NC2CCC2)c1NC(=O)c1cc(Cn2nnc(C(F)F)n2)nn1-c1ncccc1Cl` [Example 260]: the pest or weed control at 100 g/ha in data set [1] and in data set [3] (in Zea mays) was not below 80% throughout. The compound also gave a chromatographic logP in data set [2] (log P) of 3.09.

On to `Cc1cc(Cl)cc(C(=O)NCC#N)c1NC(=O)c1cc(Cn2nnc(C(F)F)n2)nn1-c1ncccc1Cl` [Example 261], for which the pest or weed control at 100 g/ha in data set [1] and in data set [3] (in Zea mays) was not below 80% in each case. Also, in data set [2] (log P), the chromatographic logP came out at 2.5.

For the compound `CNC(=O)c1cc(C#N)cc(C)c1NC(=O)c1cc(Cn2nnc(C(F)F)n2)nn1-c1ncccc1Cl` [Example 262], the pest or weed control at 100 g/ha in data set [1] and in data set [3] (in Zea mays) was not below 80% each time. Further, in data set [2] (log P), the chromatographic logP was determined as 2.17.

For the compound `Cc1cc(C#N)cc(C(=O)NC(C)(C)C)c1NC(=O)c1cc(Cn2nnc(C(F)F)n2)nn1-c1ncccc1Cl` [Example 267], the pest or weed control at 100 g/ha in data set [1] and in data set [3] (in Zea mays) was not below 80% throughout. In data set [2] (log P), the chromatographic logP is 2.88.

As to `Cc1cc(I)cc(C(=O)NC(C)C)c1NC(=O)c1cc(Cn2nnc(C(F)F)n2)nn1-c1ncccc1Cl` [Example 277], the pest or weed control at 100 g/ha in data set [1] and in data set [3] (in Zea mays) was not below 80% throughout. In addition, in data set [2] (log P), the chromatographic logP came to 3.2.

Consider `Cc1cc(I)cc(C(=O)NCC2CC2)c1NC(=O)c1cc(Cn2nnc(C(F)F)n2)nn1-c1ncccc1Cl` [Example 279], for which the pest or weed control at 100 g/ha in data set [1] and in data set [3] (in Zea mays) was not below 80% in each case. Besides, the chromatographic logP in data set [2] (log P) was 3.27.

On to `CNC(=O)c1cc(Cl)cc(Cl)c1NC(=O)c1cc(Cn2nnc(C(F)F)n2)nn1-c1ncccc1Cl` [Example 282], for which the pest or weed control at 100 g/ha in data set [1] and in data set [3] (in Zea mays) was not below 80% each time. For the same compound, the chromatographic logP in data set [2] (log P) stood at 2.48.

The values are drawn from patent publication US8324390B2, “Tetrazole-substituted anthranilamides as pesticides” (Bayer CropScience AG, priority 2008, dated 2012).
